Key:
CRBN [1] = target: T1, CRBN (Homo sapiens, UniProt Q96SW2); assay: CRBN displacement assay Format 1 (fluorescence polarization, BodipyFL-lenalidomide probe Compound HH); assay type: binding
Experimental: (§1) Compounds were tested in the following biochemical and cellular assays.
(§2) BodipyFL conjugated lenalidomide compound HH was used as a fluorescent probe. […] Protein and substrate were diluted in assay buffer.
All protein and probe containing solutions were handled in ‘Maxymum Recovery’ tubes (Axygen Scientific Inc., Union City, USA). […] For the plate measurements a PHERAstar reader (BMG Labtech, Offenburg, Germany) was used. The instrument was equipped with a specific optics module containing filters and dichoic mirrors for measuring the fluorescence polarization-type assay. With this module, the fluorescence of the Bodipy FL-based probe was excited at 485 nm and the emissions of the product were measured at 520 nm. The fluorescence in each well was excited by 10 flashes per measurement.
For the determination of AC50 values, the assays were performed at room temperature in 384-well plates with a total assay volume of 10.1 μL per well. The test compound was dissolved in 90% (v/v) DMSO/water. For the assays, 100 nL of the 90% (v/v) DMSO/water solution or compound solution were added per well, followed by the addition of 5 μL protein solution (protein in 1× assay buffer).
(§3) The final assay concentration of the protein was nominally 100 nM. After 45 minutes of pre-incubation at room temperature, the competition for binding was started by the addition of 5 μL probe solution (probe dissolved in assay buffer). The final concentration of the probes in the assays was 5 nM. After the addition of the probe solution, the final DMSO concentration in the assay was 0.9% (v/v). The effect of the probe on the pre-established compound-protein complex equilibrium was determined after 45 minutes (t=45 min). The AC50 value was calculated from the plot of percentage of protein saturation versus the test compound concentration by a logistics fit according to: y=A^2+(A^1−A^2)/(1+(x/AC50)^p), where y is the %-saturation value at the test compound concentration, x. A^1 is the lowest saturation value, i.e., 0%, and A^2 the maximum saturation value, i.e. 100%. The exponent, p, is the Hill coefficient.

CRBN [2] = target: T1, CRBN; assay: CRBN displacement assay Format 2a (fluorescence polarization, 1536-well, Envision reader); assay type: binding
Experimental: as §1, §2
The fluorescence of the Bodipy FL-based probe was excited at 480 nm and the emissions of the product were measured at 535 nm. The fluorescence in each well was excited by 30 flashes per measurement.
For the determination of AC50 values, assays were performed at room temperature in 1536-well plates with a total assay volume of 6.03 μL per well. The test compounds were dissolved and diluted in 100% DMSO. For the assays, 30 nL of DMSO or compound solution were added per well, followed by the addition of 3 μL protein solution (80 nM protein in 1× assay buffer).
as §3, with “nominally 40” for “nominally 100”, “of 3” for “of 5”, “solution (10 nM probe” for “solution (probe”, “the probe” for “the probes”, “was 0.5%” for “was 0.9%”

BTK = target: T2, BTK (Homo sapiens, UniProt Q06187); assay: BTK-GFP protein abundance flow cytometry assay in HEK293A; assay type: cell-based; conditions: 24 h; for BTK degradation Amax: % protein remaining at the concentration at which maximum degradation is seen, HEK293A; for DC50: concentration at which 50% maximal degradation was observed, HEK293A BTK-GFP sensor cells
T2 construct: the BTK open reading frame (ORF) was first shuttled from a pcDNA-DEST40-BTK vector; expressed in transfected cells; host or cells: HEK293A (Invitrogen R70507), lentiviral transduction, blasticidin selection
T2 sequence (Q06187 whole entry): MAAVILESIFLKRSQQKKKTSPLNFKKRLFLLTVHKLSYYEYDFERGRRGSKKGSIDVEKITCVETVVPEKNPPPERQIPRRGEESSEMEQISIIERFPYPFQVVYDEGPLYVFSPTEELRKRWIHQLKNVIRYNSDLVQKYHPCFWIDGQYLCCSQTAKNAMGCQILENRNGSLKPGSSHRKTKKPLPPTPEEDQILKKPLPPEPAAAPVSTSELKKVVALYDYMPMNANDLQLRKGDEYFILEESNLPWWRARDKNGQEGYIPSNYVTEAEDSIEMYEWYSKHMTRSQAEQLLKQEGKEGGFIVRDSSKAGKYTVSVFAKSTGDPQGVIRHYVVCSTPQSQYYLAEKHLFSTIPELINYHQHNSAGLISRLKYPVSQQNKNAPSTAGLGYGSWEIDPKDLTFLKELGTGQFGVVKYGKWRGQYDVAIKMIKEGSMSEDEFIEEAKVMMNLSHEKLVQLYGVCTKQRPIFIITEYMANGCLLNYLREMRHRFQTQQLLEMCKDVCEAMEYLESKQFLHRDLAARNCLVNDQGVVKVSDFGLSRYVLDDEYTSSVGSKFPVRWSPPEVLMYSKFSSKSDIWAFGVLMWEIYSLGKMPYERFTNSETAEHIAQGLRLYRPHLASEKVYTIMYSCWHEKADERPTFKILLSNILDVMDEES
Experimental: Degradation of BTK, CSK, ABL2, EPHA4 and YES1 was measured in HEK293A cells (Invitrogen R70507) expressing either BTK-GFP and RFP, CSK-GFP and mCherry, GFP-ABL2 and mCherry, EPHA4-GFP and mCherry, or YES1-GFP and mCherry from a stably integrated bicistronic BTK-GFP-iresRFP, CSK-GFP-CHYSEL-mCherry, GFP-ABL2-CHYSEL-mCherry, EPHA4-GFP-CHYSEL-mCherry, or YES1-GFP-CHYSEL-mCherry construct, respectively. Reduction of the GFP signal measured by flow cytometry served as readout for BTK, CSK, ABL2, EPHA4 and YES1 degradation after degrader treatment.
The mix was incubated for another 20 min at RT and then added on 1 mL of a freshly prepared suspension of HEK293FT cells in a well of a 6-well plate (concentration 1.2×10^6 cells/mL). 1 day after transfection, the medium was replaced with 1.5 mL of complete growth medium (DMEM high Glucose+10% FCS+1% L-Glutamine+1% NEAA+1% NaPyr.). 48 h post transfection supernatant containing viral transducing particles was collected and frozen at −80° C.
Infection was performed with 90 μL of collected supernatant containing viral transducing particles in 1 mL medium including 8 µg/mL polybrene. 24 h post infection, stably transfected cells were selected with blasticidin at a concentration of 8 μg/mL referred to as stable HEK293A sensor cells.
Stable HEK293A sensor cells were maintained in complete growth medium (DMEM high Glucose+10% FCS+1% L-Glutamine+1% NEAA+1% NaPyr.) with passaging performed twice per week. On Day 0, stable HEK293A sensor cells were seeded at 10,000 cells/well in a 96-well microtiter plate in 260 μL complete medium. On Day 1, cells were treated in duplicate with 10-point 1:3 dilution series of compound using the HP D300 Digital Dispenser (Tecan). DMSO concentrations were normalized across the plate to 0.1%. On Day 2, after 24 h of incubation at 37° C., treatment media was discarded, cells rinsed with 100 μL/well PBS and then detached using 40 μL trypsin/well for 5 min. Trypsin was neutralized with 100 μL/well PBS+20% FCS). Flow cytometry was performed on the samples using the BD FACS CANTO II (Becton Dickinson). Cell identification was then performed using forward (FSC) vs. side scatter (SSC) plots. Single cell discrimination is performed using SSC-Width (SSC-W) vs. SSC-Height (SSC-H) plots. Median GFP values for 5,000 single cells are used to determine BTK levels. Median GFP values from HEK293 Å-iresRFP are used as a background signal and thus defining 0% BTK signal. Median GFP values from DMSO treated HEK293 Å-BTK-GFP-iresRFP are used to define 100% BTK signal for subsequent DC50 curves (concentration at 50% BTK degradation). GFP and RFP are read in the channels called FITC and PE, respectively.
Concentration response curves plotting relative reduction of the GFP signal (measured by flow cytometry) versus 10 compound concentrations (starting concentration 10 μM, 3 fold dilution steps) of the compounds allowed generation of DC50 values. Protein abundance measured for the second generation vectors having a chysel was done in close analogy to the above described method for measuring BTK abundance.
Table 5 columns are defined as follows: DC50 refers to the concentration at which 50% maximal degradation was observed; deg Amax is the extent of degradation and the value refers to the % protein remaining at the concentration at which maximum degradation is seen.

[3] = concentration at which 50% of reference probe Compound HH is displaced, 100 nM protein, 5 nM probe, Table 4, read-out: CRBN AC50 [μM] Format 1
[4] = concentration at which 50% of reference probe Compound HH is displaced, 40 nM protein, 5 nM probe, read-out: CRBN AC50 [μM] Format 2a

T1 sequence (Q96SW2 whole entry): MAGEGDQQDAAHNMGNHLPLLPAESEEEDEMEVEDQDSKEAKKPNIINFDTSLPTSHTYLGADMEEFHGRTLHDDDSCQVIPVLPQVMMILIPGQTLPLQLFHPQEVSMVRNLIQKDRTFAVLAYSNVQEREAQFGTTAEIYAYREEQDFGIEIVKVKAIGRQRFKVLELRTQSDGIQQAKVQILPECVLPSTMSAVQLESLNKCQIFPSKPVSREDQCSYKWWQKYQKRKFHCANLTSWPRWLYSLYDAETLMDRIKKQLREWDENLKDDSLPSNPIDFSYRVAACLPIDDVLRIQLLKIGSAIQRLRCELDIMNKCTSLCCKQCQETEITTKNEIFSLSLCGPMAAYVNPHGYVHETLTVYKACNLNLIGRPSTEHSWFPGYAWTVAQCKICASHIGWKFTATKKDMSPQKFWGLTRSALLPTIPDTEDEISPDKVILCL

In the case of `O=C1CCN(Cc2cccn(CCO)c2=O)C(=O)N1` [ILB-3, 1-((1-(2-Hydroxyethyl)-2-oxo-1,2-dihydropyridin-3-yl)methyl)dihydropyrimidine-2,4(1H,3H)-dione], the AC50 (CRBN [1]) is reported as 14.1 µM and the AC50 (CRBN [2]) is reported as 4.17 µM.

Work on `O=C1CCN(c2ccc(C#CCN3CCOC4(CCNCC4)C3)cc2)C(=O)N1` [ILB-40, 1-(4-(3-(1-oxa-4,9-diazaspiro[5.5]undecan-4-yl)prop-1-yn-1-yl)phenyl)dihydropyrimidine-2,4(1H,3H)-dione] yielded an AC50 (CRBN [1]; [3]) of 12.3 µM and an AC50 (CRBN [2]; [4]) of 3.45 µM.

For `Cc1cc(OCC(=O)O)ccc1N1CCC(=O)NC1=O` [ILB-15], the AC50 (CRBN [1]; [3]) was 7.37 µM and the AC50 (CRBN [2]; [4]) was 2.61 µM.

`C=CCn1cccc(CN2CCC(=O)NC2=O)c1=O` [ILB-1, 1-((1-allyl-2-oxo-1,2-dihydropyridin-3-yl)methyl)dihydropyrimidine-2,4(1H,3H)-dione] showed an AC50 (CRBN [1]) of 11 µM and an AC50 (CRBN [2]) of 4.79 µM.

For `Cc1ccc(OCC=O)cc1N1CCC(=O)NC1=O` [ILB-19, 2-(3-(2,4-dioxotetrahydropyrimidin-1(2H)-yl)-4-methylphenoxy)acetaldehyde], the AC50 (CRBN [1]; [3]) was 2.51 µM and the AC50 (CRBN [2]; [4]) was 0.8 µM.

Work on `O=C1CCN(c2c(F)cc(C#CC3CCNCC3)cc2F)C(=O)N1` [ILB-38, 1-(2,6-difluoro-4-(piperidin-4-ylethynyl)phenyl)dihydropyrimidine-2,4(1H,3H)-dione] yielded an AC50 (CRBN [1]; [3]) of 8.44 µM and an AC50 (CRBN [2]; [4]) of 6.02 µM.

Compound `Cc1ccc(OCC(=O)O)cc1N1CCC(=O)NC1=O` [ILB-20, 2-(3-(2,4-Dioxotetrahydropyrimidin-1(2H)-yl)-4-methylphenoxy)acetic acid] has an AC50 (CRBN [1]; [3]) of 5.37 µM and an AC50 (CRBN [2]; [4]) of 2.01 µM.

In the case of `Cc1c(NC(=O)c2ccc(C(C)(C)O)cc2F)cc(F)cc1-c1ncnc2[nH]c(-c3ccc(CN4CCC5(CCN(CCOc6ccc(N7CCC(=O)NC7=O)c(Cl)c6)CC5)CC4)cc3)cc12` [Compound 31, N-(3-(6-(4-((9-(2-(3-chloro-4-(2,4-dioxotetrahydropyrimidin-1(2H)-yl)phenoxy)ethyl)-3,9-diazaspiro[5.5]undecan-3-yl)methyl)phenyl)-7H-pyrrolo[2,3-d]pyrimidin-4-yl)-5-fluoro-2-methylphenyl)-2-fluoro-4-(2-hydroxypropan-2-yl)benzamide], the “BTK degradation Amax” value (BTK) is reported as 32.8% and the DC50 (BTK) is reported as 0.0557 µM.

`Cc1cc(F)c(C(=O)O)cc1N1CCC(=O)NC1=O` [ILB-29, 5-(2,4-dioxotetrahydropyrimidin-1(2H)-yl)-2-fluoro-4-methylbenzoic acid] showed an AC50 (CRBN [1]; [3]) of 0.95 µM.

In the case of `Cc1c(NC(=O)N2C[C@H](CC(C)C)[C@@H](O)C2)cc(F)cc1-c1ncnc2[nH]c(-c3ccc(CN4CCN(CCOc5ccc(N6CCC(=O)NC6=O)cc5)CC4)cc3)cc12` [Compound 32, (3R,4S)—N-(3-(6-(4-((4-(2-(4-(2,4-Dioxotetrahydropyrimidin-1(2H)-yl)phenoxy)ethyl)piperazin-1-yl)methyl)phenyl)-7H-pyrrolo[2,3-d]pyrimidin-4-yl)-5-fluoro-2-methylphenyl)-3-hydroxy-4-isobutylpyrrolidine-1-carboxamide], the “BTK degradation Amax” value (BTK) is reported as 16.7% and the DC50 (BTK) is reported as 0.0014 µM.

`Cc1c(NC(=O)c2ccc(C(C)(C)O)cc2F)cc(F)cc1-c1ncnc2[nH]c(-c3ccc(CN4CCN(CCN5CCC(Oc6ccc(N7CCC(=O)NC7=O)cc6)CC5)CC4)cc3)cc12` [Compound 28, N-(3-(6-(4-((4-(2-(4-(4-(2,4-dioxotetrahydropyrimidin-1(2H)-yl)phenoxy)piperidin-1-yl)ethyl)piperazin-1-yl)methyl)phenyl)-7H-pyrrolo[2,3-d]pyrimidin-4-yl)-5-fluoro-2-methylphenyl)-2-fluoro-4-(2-hydroxypropan-2-yl)benzamide] was tested, and the “BTK degradation Amax” value (BTK) was 40% and the DC50 (BTK) was 0.0092 µM.

`O=C1CCN(c2c(F)cc(C#CCN3CCNCC3)cc2F)C(=O)N1` [ILB-45, 1-(2,6-difluoro-4-(3-(piperazin-1-yl)prop-1-yn-1-yl)phenyl)dihydropyrimidine-2,4(1H,3H)-dione] gave an AC50 (CRBN [1]) of 13.5 µM.

With `Cc1cc(OCCN2CCC(OC3CCN(Cc4ccc(-c5cc6c(-c7cc(F)cc(NC(=O)c8ccc(C(C)(C)O)cc8F)c7C)ncnc6[nH]5)cc4)CC3)CC2)ccc1N1CCC(=O)NC1=O` [Compound 30, N-(3-(6-(4-((4-((1-(2-(4-(2,4-dioxotetrahydropyrimidin-1(2H)-yl)-3-methylphenoxy)ethyl)piperidin-4-yl)oxy)piperidin-1-yl)methyl)phenyl)-7H-pyrrolo[2,3-d]pyrimidin-4-yl)-5-fluoro-2-methylphenyl)-2-fluoro-4-(2-hydroxypropan-2-yl)benzamide] the “BTK degradation Amax” value (BTK) was 12.2% and the DC50 (BTK) was 0.0098 µM.

`O=C1CCN(c2cc(C(=O)N3CCC(OC4CCNCC4)CC3)ccc2Cl)C(=O)N1` [ILB-60, 1-(2-Chloro-5-(4-(piperidin-4-yloxy)piperidine-1-carbonyl)phenyl)dihydropyrimidine-2,4(1H,3H)-dione] showed an AC50 (CRBN [1]) of 2.8 µM.

— patent US20220387602A1, “BIFUNCTIONAL DEGRADERS AND THEIR METHODS OF USE” (NOVARTIS AG, priority 2019, published 2022)
